For assay [1], the target named is T1, Inhibitor of nuclear factor kappa-B kinase subunit beta (Homo sapiens) (UniProt O14920).
T1 sequence (whole entry): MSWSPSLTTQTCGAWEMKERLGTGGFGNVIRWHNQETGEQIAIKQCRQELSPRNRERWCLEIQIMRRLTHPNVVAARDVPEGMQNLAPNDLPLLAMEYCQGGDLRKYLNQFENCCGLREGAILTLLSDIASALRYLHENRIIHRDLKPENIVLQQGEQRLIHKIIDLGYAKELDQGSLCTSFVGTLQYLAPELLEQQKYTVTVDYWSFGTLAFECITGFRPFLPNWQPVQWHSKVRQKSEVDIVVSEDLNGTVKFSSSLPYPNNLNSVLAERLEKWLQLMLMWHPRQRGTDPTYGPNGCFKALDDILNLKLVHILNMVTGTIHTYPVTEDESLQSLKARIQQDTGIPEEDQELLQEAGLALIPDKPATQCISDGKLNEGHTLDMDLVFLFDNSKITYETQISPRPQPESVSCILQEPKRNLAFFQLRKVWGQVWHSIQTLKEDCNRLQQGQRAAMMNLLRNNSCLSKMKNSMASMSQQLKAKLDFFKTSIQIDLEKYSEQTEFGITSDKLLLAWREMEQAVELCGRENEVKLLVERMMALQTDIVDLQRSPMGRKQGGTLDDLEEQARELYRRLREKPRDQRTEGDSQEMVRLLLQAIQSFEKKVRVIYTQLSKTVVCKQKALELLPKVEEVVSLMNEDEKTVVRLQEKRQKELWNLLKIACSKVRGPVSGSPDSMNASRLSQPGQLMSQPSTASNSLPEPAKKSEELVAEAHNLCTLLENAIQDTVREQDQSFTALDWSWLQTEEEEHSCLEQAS
Description: Inhibition of human recombinant GST tagged IKK2 expressed in baculovirus using Ser/Thr05 peptide as substrate at 10 uM after 60 mins by Z-LYTE assay.

The target of assay [2] is T2, Inhibitor of nuclear factor kappa-B kinase subunit alpha (Homo sapiens) (UniProt O15111).
T2 sequence (whole entry): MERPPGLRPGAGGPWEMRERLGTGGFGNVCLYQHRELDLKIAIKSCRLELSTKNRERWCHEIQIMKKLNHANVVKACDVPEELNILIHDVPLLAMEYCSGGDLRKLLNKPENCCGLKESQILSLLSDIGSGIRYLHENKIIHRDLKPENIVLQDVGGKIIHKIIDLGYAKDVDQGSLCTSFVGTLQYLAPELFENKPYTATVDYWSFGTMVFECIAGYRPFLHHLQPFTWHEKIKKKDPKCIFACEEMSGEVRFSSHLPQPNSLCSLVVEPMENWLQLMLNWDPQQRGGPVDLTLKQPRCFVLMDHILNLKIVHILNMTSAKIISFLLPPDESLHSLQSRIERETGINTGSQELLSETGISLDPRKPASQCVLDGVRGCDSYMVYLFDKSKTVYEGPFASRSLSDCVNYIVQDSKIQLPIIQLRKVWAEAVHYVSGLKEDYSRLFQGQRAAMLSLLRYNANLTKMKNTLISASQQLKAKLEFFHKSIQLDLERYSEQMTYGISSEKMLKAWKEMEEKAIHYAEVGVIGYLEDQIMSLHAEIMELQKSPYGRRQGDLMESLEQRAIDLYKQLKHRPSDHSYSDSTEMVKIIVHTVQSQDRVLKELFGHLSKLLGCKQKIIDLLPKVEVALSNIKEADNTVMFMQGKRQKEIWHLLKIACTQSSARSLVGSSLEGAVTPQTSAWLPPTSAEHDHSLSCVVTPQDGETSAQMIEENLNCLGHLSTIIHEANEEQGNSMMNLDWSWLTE
Put plainly: Inhibition of human recombinant His tagged IKK1 expressed in baculovirus at 10 uM after 60 mins by Adapta assay.

The target in assay [3] is T3, Inhibitor of nuclear factor kappa-B kinase subunit beta (Homo sapiens, UniProt O14920).
T3 sequence (O14920 whole entry): T1 sequence (whole entry)
Description: Inhibition of human recombinant GST tagged IKK2 expressed in baculovirus using Ser/Thr05 peptide as substrate after 60 mins by Z-LYTE assay.

The structures appear in SMILES notation. Active and inactive are the calls of the source. The rule behind the calls is not given here.

The values below come from ChEMBL document CHEMBL3785011, “New IKK inhibitors: Synthesis of new imidazo[1,2-a]quinoxaline derivatives using microwave assistance and biological evaluation as IKK inhibitors” (Eur J Med Chem, 2016).

The inhibition is the share of the control response that was lost under treatment. What is called IC50 is the midpoint of a concentration-inhibition curve.

For `CNc1nc2cc(C)ccc2n2c(Br)cnc12`, the inhibition is 54% in assay [1] and 26% in assay [2].

As for `CNc1nc2ccccc2n2c(Br)cnc12`, the inhibition in assay [1] amounted to 60%; in assay [2], 23%.

In the case of `CNc1nc2ccc(C)cc2n2c(-c3cccc(OC)c3)cnc12`, the inhibition in assay [1] and in assay [2] was 3% in each case.

As to `CNc1nc2cc(C)ccc2n2c(-c3cccc(OC)c3)cnc12`, the inhibition entry in assay [1] is “inactive”. Moreover, in assay [2], the inhibition worked out at 7%.

In the case of `CNc1nc2ccc(C)cc2n2c(C)cnc12`, the results for the inhibition in assay [1] and in assay [2] were 65% and 1%, respectively. In assay [3], the 50% inhibitory concentration (IC50) came out at 773 nM.

Regarding `CNc1nc2cc(C)ccc2n2c(C)cnc12`, the results for the inhibition in assay [1] and in assay [2] were 57% and 19%, respectively.

For the compound `CNc1nc2ccccc2n2c(-c3cccc(OC)c3)cnc12`, the inhibition in assay [1] is 2%; in assay [2], 13%.

On to `Cc1ccc2nc(NCCN)c3ncc(C)n3c2c1`, for which the inhibition in assay [1] came to 64%; in assay [2], 8%.

Take `CNc1nc2ccc(C)cc2n2ccnc12`: the inhibition worked out at 64% in assay [1] and 9% in assay [2]. Besides, in assay [3], the IC50 is 579 nM.

Regarding `CNc1nc2ccccc2n2c(C)cnc12`, the inhibition in assay [1] came out at 61%; in assay [2], 7%.

On to `CNc1nc2ccc(C)cc2n2c(Br)cnc12`, for which the inhibition in assay [1] worked out at 72%; in assay [2], 13%. In assay [3], the IC50 came to 324 nM.

For `CNc1nc2cc(C)ccc2n2ccnc12`, the inhibition in assay [1] is 50%; in assay [2] it was 9%.

Consider `CNc1nc2ccccc2n2ccnc12`, for which the inhibition in assay [1] is 54%; in assay [2], 7%.
